Laboratory results taken from US20250101042A1, “KRAS G12D MODULATING COMPOUNDS” (Gilead Sciences, Inc., priority 2023, published 2025).

Key:
[1] = tested on: GP2D (KRAS G12D) cells; test: 2D Cell Viability Assay (CellTiter-Glo); type: cell-based; settings: GP2d, 96 h, 4 days, CellTiter-Glo luminescence
Procedure: Example B. 2D Cell Viability Assay
Compounds were tested in a 384-well format for their ability to inhibit the viability of GP2D (KRAS G12D) cells in 2D assays. Compounds were serially diluted (1:3) in DMSO. The LabCyte ECHO Acoustic dispenser system was used to pre-spot assay plates with 200 nL of test molecule per well. 1000 cells/well (40 μL volume per well) in RPMI medium with 10% FBS, and Penicillin-Streptomycin-Glutamine were plated in pre-spotted 384-well plates (Greiner, Catalog #781076) on the BioTEK EL406 liquid dispenser with a 5 μL dispensing cassette (BioTek 7170011). The plates were incubated at 37° C., 5% CO2 for 4 days before addition of CellTiter-Glo (CTG) reagent and measurement of luminescence signal. EC50 values were defined as the compound concentration that causes a 50% decrease in luminescence signal and were calculated using a sigmoidal dose-response model to generate curve fits.

[2] = target: GDP-loaded KRAS G12D (Homo sapiens, UniProt P01116, G12D); test: KRAS G12D (GDP) Biochemical Assay (TR-FRET probe displacement); type: binding; settings: 0.5 nM enzyme, 2 hours at room temperature
Procedure: Example A. KRAS G12D (GDP) Biochemical Assay
Compounds were tested for binding to GDP-loaded KRAS G12D in a 384-well assay format using a TR-FRET probe displacement assay in buffer consisting of 50 mM Hepes (pH 7.4), 150 mM NaCl, 5 mM MgCl2 and 0.005% Tween-20. […] Compounds were serially diluted (1:3) in DMSO. The LabCyte ECHO Acoustic dispenser system was used to pre-spot the assay plates (384-well Non-Binding Surface plates, Corning, Catalog #3824) with 50 nL of compound. The compounds were pre-incubated with 5 μL of 2× final enzyme concentration for 30 minutes before adding 5 μL of 2× final concentration of Eu-streptavidin and TR-FRET probe (10 μL final reaction volume). The plates were incubated at room temperature for 2 hours before measuring TR-FRET ratio on the Envision plate reader. IC50 values were defined as the compound concentration that causes a 50% decrease in TR-FRET ratio and were calculated using a sigmoidal dose-response model to generate curve fits.

Sequence of GDP-loaded KRAS G12D (P01116 1-188 isoform P01116-2 G12D): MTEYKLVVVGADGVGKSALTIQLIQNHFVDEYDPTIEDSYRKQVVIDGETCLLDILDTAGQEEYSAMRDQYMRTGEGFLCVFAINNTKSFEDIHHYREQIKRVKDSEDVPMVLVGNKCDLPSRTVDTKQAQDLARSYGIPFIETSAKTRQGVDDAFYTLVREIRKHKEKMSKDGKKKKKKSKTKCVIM

SMILES	EC50 [1] [nM]	IC50 [2] [nM]
Cc1cc(N)nc(-c2c(Br)c3c4c(nc(OC[C@@]56CCCN5C[C@H](F)C6)nc4c2F)N2C[C@H]4CC[C@H](N4)[C@H]2CC3)c1C(F)(F)F [Example 14, 6-((1S,4R,14aR)-12-bromo-10-fluoro-8-(((2R,7aS)-2-fluorotetrahydro-1H-pyrrolizin-7a(5H)-yl)methoxy)-1,2,3,4,5,13,14,14a-octahydro-1,4-epiminoazepino[1′,2′:1,7]azepino[2,3,4-de]quinazolin-11-yl)-4-methyl-5-(trifluoromethyl)pyridin-2-amine]	2.5	0.24
C=Cc1c(-c2nc(N)cc(C)c2C(F)(F)F)c(F)c2nc(OC[C@@]34CCCN3C[C@H](F)C4)nc3c2c1CC[C@@H]1[C@@H]2CC[C@H](CN31)N2 [Example 15, 6-((1S,4R,14aR)-10-fluoro-8-(((2R,7aS)-2-fluorotetrahydro-1H-pyrrolizin-7a(5H)-yl)methoxy)-12-vinyl-1,2,3,4,5,13,14,14a-octahydro-1,4-epiminoazepino[1′,2′:1,7]azepino[2,3,4-de]quinazolin-11-yl)-4-methyl-5-(trifluoromethyl)pyridin-2-amine]	24	0.43
CCc1c(-c2nc(N)cc(C)c2C(F)(F)F)c(F)c2nc(OC[C@@]34CCCN3C[C@H](F)C4)nc3c2c1CC[C@@H]1[C@@H]2CC[C@H](CN31)N2 [Example 16, 6-((1S,4R,14aR)-12-ethyl-10-fluoro-8-(((2R,7aS)-2-fluorotetrahydro-1H-pyrrolizin-7a(5H)-yl)methoxy)-1,2,3,4,5,13,14,14a-octahydro-1,4-epiminoazepino[1′,2′:1,7]azepino[2,3,4-de]quinazolin-11-yl)-4-methyl-5-(trifluoromethyl)pyridin-2-amine]	20	0.82
Cc1cc(N)nc(-c2nc3c4c(nc(OC[C@@]56CCCN5C[C@H](F)C6)nc4c2F)N2C[C@H]4CC[C@H](N4)[C@@H]2[C@@H](C)C3)c1C(F)(F)F [Example 17, 6-((5S,5aS,6S,9R)-1-fluoro-12-(((2R,7aS)-2-fluorotetrahydro-1H-pyrrolizin-7a(5H)-yl)methoxy)-5-methyl-4,5,5a,6,7,8,9,10-octahydro-3,10a,11,13,14-pentaaza-6,9-methanonaphtho[1,8-ab]heptalen-2-yl)-4-methyl-5-(trifluoromethyl)pyridin-2-amine]	25	6.1
Cc1cc(N)nc(-c2nc3c4c(nc(OC[C@@]56CCCN5C[C@H](F)C6)nc4c2F)N2C[C@H]4CC[C@H](N4)[C@H]2C[C@H](C)C3)c1C(F)(F)F [Example 18, 6-((5S,6aR,7S,10R)-1-fluoro-13-(((2R,7aS)-2-fluorotetrahydro-1H-pyrrolizin-7a(5H)-yl)methoxy)-5-methyl-5,6,6a,7,8,9,10,11-octahydro-4H-3,11a,12,14,15-pentaaza-7,10-methanocyclohepta[4,5]cycloocta[1,2,3-de]naphthalen-2-yl)-4-methyl-5-(trifluoromethyl)pyridin-2-amine]	> 100	83
Cc1cc(N)nc(-c2c(F)c3c4c(nc(OC[C@@]56CCCN5C[C@H](F)C6)nc4c2F)N2C[C@H]4CC[C@H](N4)[C@H]2CC3)c1C(F)(F)F [Example 19, 6-((1S,4R,14aR)-10,12-difluoro-8-(((2R,7aS)-2-fluorotetrahydro-1H-pyrrolizin-7a(5H)-yl)methoxy)-1,2,3,4,5,13,14,14a-octahydro-1,4-epiminoazepino[1′,2′:1,7]azepino[2,3,4-de]quinazolin-11-yl)-4-methyl-5-(trifluoromethyl)pyridin-2-amine]	3.3	0.18
Nc1nc2c(F)ccc(-c3nc4c5c(nc(OC[C@@]67CCCN6C[C@H](F)C7)nc5c3F)N3C[C@H]5CC[C@H](N5)[C@H]3CC4)c2s1 [Example 20, 4-fluoro-7-((5aR,6S,9R)-1-fluoro-12-(((2R,7aS)-2-fluorotetrahydro-1H-pyrrolizin-7a(5H)-yl)methoxy)-4,5,5a,6,7,8,9,10-octahydro-3,10a,11,13,14-pentaaza-6,9-methanonaphtho[1,8-ab]heptalen-2-yl)benzo[d]thiazol-2-amine]	> 100	8.2
C#Cc1c(F)ccc2cc(N)nc(-c3c(Cl)c4c5c(nc(OC[C@@]67CCCN6C[C@H](F)C7)nc5c3F)N3C[C@H]5CC[C@H](N5)[C@H]3CC4)c12 [Example 23, 1-((1S,4R,14aR)-12-chloro-10-fluoro-8-(((2R,7aS)-2-fluorotetrahydro-1H-pyrrolizin-7a(5H)-yl)methoxy)-1,2,3,4,5,13,14,14a-octahydro-1,4-epiminoazepino[1′,2′:1,7]azepino[2,3,4-de]quinazolin-11-yl)-8-ethynyl-7-fluoroisoquinolin-3-amine]	6.1	0.16
Nc1cc(Cl)c(C(F)F)c(-c2nc3c4c(nc(OC[C@@]56CCCN5C[C@H](F)C6)nc4c2F)N2C[C@H]4CC[C@H](N4)[C@H]2CCC3)n1 [Example 24, 4-chloro-5-(difluoromethyl)-6-((6aR,7S,10R)-1-fluoro-13-(((2R,7aS)-2-fluorotetrahydro-1H-pyrrolizin-7a(5H)-yl)methoxy)-5,6,6a,7,8,9,10,11-octahydro-4H-3,11a,12,14,15-pentaaza-7,10-methanocyclohepta[4,5]cycloocta[1,2,3-de]naphthalen-2-yl)pyridin-2-amine]	> 100	11
N#Cc1c(N)sc2cccc(-c3c(F)c4c5c(nc(OC[C@@]67CCCN6C[C@H](F)C7)nc5c3F)N3C[C@H]5CC[C@H](N5)[C@H]3CC4)c12 [Example 25, 2-amino-4-((1S,4R,14aR)-10,12-difluoro-8-(((2R,7aS)-2-fluorotetrahydro-1H-pyrrolizin-7a(5H)-yl)methoxy)-1,2,3,4,5,13,14,14a-octahydro-1,4-epiminoazepino[1′,2′:1,7]azepino[2,3,4-de]quinazolin-11-yl)benzo[b]thiophene-3-carbonitrile]	1.6	0.12
C#Cc1c(F)ccc2cc(N)nc(-c3nc4c5c(nc(OC[C@@]67CCCN6C[C@H](F)C7)nc5c3F)N3C[C@H]5CC[C@H](N5)[C@H]3CCC4)c12 [Example 26, 8-ethynyl-7-fluoro-1-((6aR,7S,10R)-1-fluoro-13-(((2R,7aS)-2-fluorotetrahydro-1H-pyrrolizin-7a(5H)-yl)methoxy)-5,6,6a,7,8,9,10,11-octahydro-4H-3,11a,12,14,15-pentaaza-7,10-methanocyclohepta[4,5]cycloocta[1,2,3-de]naphthalen-2-yl)isoquinolin-3-amine]	4.1	0.4
C#Cc1c(F)ccc2cc(N)nc(-c3c(F)c4c5c(nc(OC[C@@]67CCCN6C[C@H](F)C7)nc5c3F)N3C[C@H]5CC[C@H](N5)[C@H]3CCC4)c12 [Example 61, (S)-1-((1S,4R,15aR)-10,12-difluoro-8-(((2R,7aS)-2-fluorotetrahydro-1H-pyrrolizin-7a(5H)-yl)methoxy)-2,3,4,5,13,14,15,15a-octahydro-1H-1,4-epiminoazepino[1′,2′:1,8]azocino[2,3,4-de]quinazolin-11-yl)-8-ethynyl-7-fluoroisoquinolin-3-amine]	0.88	0.02
